Reference: patent publication US20140243302A1, “BRIDGED BICYCLIC COMPOUNDS FOR THE TREATMENT OF BACTERIAL INFECTIONS” (priority 2011, published 2014)
≈ marks a conversion by molar mass, not a printed value.

System: Staphylococcus aureus Smith
Experiment: MIC assay, modified agar dilution (CLSI), S. aureus Smith
Assay type: cell-based
Settings: Staphylococcus aureus, agar dilution, 35° C., 16-20 hr; lowest concentration that completely inhibited growth; read-out: S_aureus_Smith_WT_MIC
Method in brief: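 Strains were spotted at about 1×10^4 CFU onto compound-containing Mueller Hinton agar (two-fold series, 128-0.001 μg/mL), horse blood 5% added for pneumococcus and enterococcus. MIC read after 16-20 hr at 35 °C, following a modified CLSI agar dilution method.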

| Compound | MIC |
| --- | --- |
| COc1ccc2ncc(F)c(CCC34CCC(NCc5cnn(CC(F)F)c5)(CC3)CO4)c2n1 [Example 92, N-((1-(2,2-Difluoroethyl)-1H-pyrazol-4-yl)methyl)-1-(2-(3-fluoro-6-methoxy-1,5-naphthyridin-4-yl)ethyl)-2-oxabicyclo[2.2.2]octan-4-amine] | 0.125 µg/mL (≈ 0.263 µM) |
| COc1ccc2ncc(F)c(CCC34CCC(NCc5nn(C)cc5Cl)(CC3)CO4)c2n1 [Example 93, N-((4-Chloro-1-methyl-1H-pyrazol-3-yl)methyl)-1-(2-(3-fluoro-6-methoxy-1,5-naphthyridin-4-yl)ethyl)-2-oxabicyclo[2.2.2]octan-4-amine] | 16 µg/mL (≈ 34.8 µM) |
| COc1ccc2ncc(F)c(CCC34CCC(NCc5cn(C)c(=O)n(C)c5=O)(CC3)CO4)c2n1 [Example 94, 5-((1-(2-(3-Fluoro-6-methoxy-1,5-naphthyridin-4-yl)ethyl)-2-oxabicyclo[2.2.2]octan-4-ylamino)methyl)-1,3-dimethylpyrimidine-2,4(1H,3H)-dione] | > 16 µg/mL |
| COc1ccc2ncc(F)c(CCC34CCC(NCc5ccc(OC(F)F)c(OC)c5)(CC3)CO4)c2n1 [Example 95, N-(4-(Difluoromethoxy)-3-methoxybenzyl)-1-(2-(3-fluoro-6-methoxy-1,5-naphthyridin-4-yl)ethyl)-2-oxabicyclo[2.2.2]octan-4-amine] | 0.5 µg/mL (≈ 0.966 µM) |
| COc1ccc2ncc(F)c(CCC34CCC(NCc5cc6c(cn5)OCC(=O)N6)(CC3)CO4)c2n1 [Example 96, 7-(((1-(2-(3-Fluoro-6-methoxy-1,5-naphthyridin-4-yl)ethyl)-2-oxabicyclo[2.2.2]octan-4-yl)amino)methyl)-1H-pyrido[3,4-b][1,4]oxazin-2(3H)-one] | 0.031 µg/mL (≈ 0.0628 µM) |
| COc1ccc2ncc(F)c(CCC34CCC(NCc5nc6ccccc6[nH]c5=O)(CC3)CO4)c2n1 [Example 97, 3-(((1-(2-(3-Fluoro-6-methoxy-1,5-naphthyridin-4-yl)ethyl)-2-oxabicyclo[2.2.2]octan-4-yl)amino)methyl)quinoxalin-2(1H)-one] | 1 µg/mL (≈ 2.04 µM) |
| COc1ccc2ncc(F)c(CCC34CCC(NCc5nc6c(cc5F)OCC(=O)N6)(CC3)CO4)c2n1 [Example 98, 7-Fluoro-6-(((1-(2-(3-fluoro-6-methoxy-1,5-naphthyridin-4-yl)ethyl)-2-oxabicyclo[2.2.2]octan-4-yl)amino)methyl)-2H-pyrido[3,2-b][1,4]oxazin-3(4H)-one] | 0.016 µg/mL (≈ 0.0313 µM) |
| COc1ccc2ncc(F)c(CCC34CCC(NCc5ccc6c(n5)NC(=O)C(C)(C)O6)(CC3)CO4)c2n1.Cl [Example 99, 6-((1-(2-(3-Fluoro-6-methoxy-1,5-naphthyridin-4-yl)ethyl)-2-oxabicyclo[2.2.2]octan-4-ylamino)methyl)-2,2-dimethyl-2H-pyrido[3,2-b][1,4]oxazin-3(4H)-one] | 0.25 µg/mL |
| COc1ccc2ncc(F)c(CCC34CCC(NCc5ccc6c(n5)N(C)C(=O)CO6)(CC3)CO4)c2n1 [Example 101, 6-((1-(2-(3-Fluoro-6-methoxy-1,5-naphthyridin-4-yl)ethyl)-2-oxabicyclo[2.2.2]octan-4-ylamino)methyl)-4-methyl-2H-pyrido[3,2-b][1,4]oxazin-3(4H)-one] | 2 µg/mL (≈ 3.94 µM) |
| COc1ccc2ncc(F)c(CCC34CCC(NCc5cc6cc(F)ccc6n(C)c5=O)(CC3)CO4)c2n1 [Example 102, 6-Fluoro-3-((1-(2-(3-fluoro-6-methoxy-1,5-naphthyridin-4-yl)ethyl)-2-oxabicyclo[2.2.2]octan-4-ylamino)methyl)-1-methylquinolin-2(1H)-one] | 2 µg/mL (≈ 3.84 µM) |
| COc1ccc2ncc(F)c(CCC34CCC(NCc5c(OC)c6ccccc6n(C)c5=O)(CC3)CO4)c2n1 [Example 103, 3-((1-(2-(3-Fluoro-6-methoxy-1,5-naphthyridin-4-yl)ethyl)-2-oxabicyclo[2.2.2]octan-4-ylamino)methyl)-4-methoxy-1-methylquinolin-2(1H)-one] | 4 µg/mL (≈ 7.51 µM) |
| COc1ccc2ncc(F)c(CCC34CCC(NCc5cc6ccc(Cl)cc6n(C)c5=O)(CC3)CO4)c2n1 [Example 104, 7-Chloro-3-((1-(2-(3-fluoro-6-methoxy-1,5-naphthyridin-4-yl)ethyl)-2-oxabicyclo[2.2.2]octan-4-ylamino)methyl)-1-methylquinolin-2(1H)-one] | > 8 µg/mL |
| COc1ccc2ncc(F)c(CCC34CCC(NCc5cc6ccc(F)cc6n(C)c5=O)(CC3)CO4)c2n1 [Example 105, 7-Fluoro-3-((1-(2-(3-fluoro-6-methoxy-1,5-naphthyridin-4-yl)ethyl)-2-oxabicyclo[2.2.2]octan-4-ylamino)methyl)-1-methylquinolin-2(1H)-one] | 2 µg/mL (≈ 3.84 µM) |
| COc1ccc2ncc(F)c(CCC34CCC(NCc5cc6c(Cl)cccc6n(C)c5=O)(CC3)CO4)c2n1 [Example 106, 5-Chloro-3-((1-(2-(3-fluoro-6-methoxy-1,5-naphthyridin-4-yl)ethyl)-2-oxabicyclo[2.2.2]octan-4-ylamino)methyl)-1-methylquinolin-2(1H)-one] | 1 µg/mL (≈ 1.86 µM) |
| COc1ccc2ncc(F)c(CCC34CCC(NCc5ccc6oc(=O)[nH]c6n5)(CC3)CO4)c2n1 [Example 107, 5-((1-(2-(3-Fluoro-6-methoxy-1,5-naphthyridin-4-yl)ethyl)-2-oxabicyclo[2.2.2]octan-4-ylamino)methyl)oxazolo[4,5-b]pyridin-2(3H)-one] | 32 µg/mL (≈ 66.7 µM) |
| COc1ccc2ncc(F)c(CCC34CCC(NCc5nc6cccnc6n(C)c5=O)(CC3)CO4)c2n1.Cl [Example 108, 2-((1-(2-(3-Fluoro-6-methoxy-1,5-naphthyridin-4-yl)ethyl)-2-oxabicyclo[2.2.2]octan-4-ylamino)methyl)-4-methylpyrido[3,2-b]pyrazin-3(4H)-one Hydrochloride] | > 8 µg/mL |
| Cl.O=C1COc2ccc(CNC34CCC(CCN5C(=O)COc6cccnc65)(CC3)OC4)nc2N1 [Example 109, 6-((1-(2-(3-Oxo-2H-pyrido[3,2-b][1,4]oxazin-4(3H)-yl)ethyl)-2-oxabicyclo[2.2.2]octan-4-ylamino)methyl)-2H-pyrido[3,2-b][1,4]oxazin-3(4H)-one Hydrochloride] | 8 µg/mL |
| Cc1nccc2c1ccc(=O)n2CCC12CCC(NCc3ccc4c(n3)NC(=O)CO4)(CC1)CO2 [Example 110, 6-((1-(2-(5-Methyl-2-oxo-1,6-naphthyridin-1(2H)-yl)ethyl)-2-oxabicyclo[2.2.2]octan-4-ylamino)methyl)-2H-pyrido[3,2-b][1,4]oxazin-3(4H)-one] | 4 µg/mL (≈ 8.41 µM) |
| Cc1ccc2ccc(=O)n(CCC34CCC(NCc5ccc6c(n5)NC(=O)CO6)(CC3)CO4)c2n1.Cl [Example 111, 6-((1-(2-(7-Methyl-2-oxo-1,8-naphthyridin-1(2H)-yl)ethyl)-2-oxabicyclo[2.2.2]octan-4-ylamino)methyl)-2H-pyrido[3,2-b][1,4]oxazin-3(4H)-one Hydrochloride] | 0.125 µg/mL |
| O=C1COc2ccc(CNC34CCC(CCn5c(=O)c6cccn6c6c(F)cccc65)(CC3)OC4)nc2N1 [Example 112, 6-((1-(2-(9-Fluoro-4-oxopyrrolo[1,2-a]quinoxalin-5(4H)-yl)ethyl)-2-oxabicyclo[2.2.2]octan-4-ylamino)methyl)-2H-pyrido[3,2-b][1,4]oxazin-3(4H)-one] | 1 µg/mL (≈ 1.93 µM) |
| Cc1ccc2ccc(OCCC34CCC(NCc5ccc6c(n5)NC(=O)CO6)(CC3)CO4)nc2n1 [Example 113, 6-((1-(2-(7-Methyl-1,8-naphthyridin-2-yloxy)ethyl)-2-oxabicyclo[2.2.2]octan-4-ylamino)methyl)-2H-pyrido[3,2-b][1,4]oxazin-3(4H)-one] | 16 µg/mL (≈ 33.6 µM) |
| Cc1nc2ccccc2n(CCC23CCC(NCc4ccc5c(n4)NC(=O)CO5)(CC2)CO3)c1=O [Example 114, 6-((1-(2-(3-Methyl-2-oxoquinoxalin-1(2H)-yl)ethyl)-2-oxabicyclo[2.2.2]octan-4-ylamino)methyl)-2H-pyrido[3,2-b][1,4]oxazin-3(4H)-one] | 4 µg/mL (≈ 8.41 µM) |
| COc1cc2ncc(=O)n(CCC34CCC(NCc5ccc6c(n5)NC(=O)CO6)(CC3)CO4)c2cc1OC [Example 115, 6-((1-(2-(6,7-Dimethoxy-2-oxoquinoxalin-1(2H)-yl)ethyl)-2-oxabicyclo[2.2.2]octan-4-ylamino)methyl)-2H-pyrido[3,2-b][1,4]oxazin-3(4H)-one] | 0.5 µg/mL (≈ 0.959 µM) |
| O=C1COc2ccc(CNC34CCC(CCn5c(=O)ccc6cccnc65)(CC3)OC4)nc2N1 [Example 116, 6-((1-(2-(2-Oxo-1,8-naphthyridin-1(2H)-yl)ethyl)-2-oxabicyclo[2.2.2]octan-4-ylamino)methyl)-2H-pyrido[3,2-b][1,4]oxazin-3(4H)-one] | 16 µg/mL (≈ 34.7 µM) |
| Cc1nnc2c(=O)n(CCC34CCC(NCc5ccc6c(n5)NC(=O)CO6)(CC3)CO4)c3ccccc3n12 [Example 117, 6-((1-(2-(1-Methyl-4-oxo-[1,2,4]triazolo[4,3-a]quinoxalin-5(4H)-yl)ethyl)-2-oxabicyclo[2.2.2]octan-4-ylamino)methyl)-2H-pyrido[3,2-b][1,4]oxazin-3(4H)-one] | 64 µg/mL (≈ 124 µM) |
| O=C1COc2ccc(CNC34CCC(CCN5C(=O)N6CCCN=C6c6ccccc65)(CC3)OC4)nc2N1 [Example 118, 6-(((1-(2-(6-Oxo-3,4-dihydro-2H-pyrimido[1,2-c]quinazolin-7(6H)-yl)ethyl)-2-oxabicyclo[2.2.2]octan-4-yl)amino)methyl)-2H-pyrido[3,2-b][1,4]oxazin-3(4H)-one] | 32 µg/mL (≈ 61.9 µM) |
| O=C1COc2ccc(CNC34CCC(CCn5c(=O)ccc6ncc(F)cc65)(CC3)OC4)nc2N1 [Example 119, 6-((1-(2-(7-Fluoro-2-oxo-1,5-naphthyridin-1(2H)-yl)ethyl)-2-oxabicyclo[2.2.2]octan-4-ylamino)methyl)-2H-pyrido[3,2-b][1,4]oxazin-3(4H)-one] | 0.125 µg/mL (≈ 0.261 µM) |
| COc1cnc2ccc(=O)n(CCC34CCC(NCc5ccc6c(n5)NC(=O)CO6)(CC3)CO4)c2c1 [Example 120, 6-(((1-(2-(7-Methoxy-2-oxo-1,5-naphthyridin-1(2H)-yl)ethyl)-2-oxabicyclo[2.2.2]octan-4-yl)amino)methyl)-2H-pyrido[3,2-b][1,4]oxazin-3(4H)-one] | 0.016 µg/mL (≈ 0.0326 µM) |
